According to US11649235B2, “Pan-tropic entry inhibitors” (Emory University, priority 2018, dated 2023):
pEC50, pIC50: −log10 of the molar value. Like-named read-outs stand apart in the source and are kept apart here.

Tests used:
HIV = conditions: in vitro resistance studies; cited from earlier work
MAGI [1] = test: Cytotoxicity in MAGI HIV-1BaL assay; assay type: cell-based; conditions: Table 3; head prints TC90
Procedure: (§1) HIV-1 and MAGI Tropism assays can be used to establish activity/cytotoxicity and synergy studies and ADME profiles of compounds are evaluated using in vitro assays such as CYP2D6/3A4 assays and metabolic stability in human and mouse liver microsomes (See Tables 2 and 3).

CYP2D6 = CYP2D6 (Homo sapiens (Human), UniProt P10635); test: Recombinant CYP inhibition assay (fluorometric), CYP2D6; assay type: in vitro ADME
Source text: (§2) Recombinant CYP Inhibition Assay: In a drug discovery program, a rapid screening for cyctochrome P450 (CYP450) inhibitors is a part of the existing standard for avoiding the development of drugs likely to give clinical pharmacokinetic drug-drug interactions and associated toxicities. A microtiter plate-based, direct fluorometric assay for the activities of the principal human drug-metabolizing enzymes, CYP2D6 and CYP3A4 can be used and these assays are rapid and compatible with existing high-throughput assay instrumentation.
(§3) Fluorometric Enzyme Inhibition Assays: Test compounds were dissolved in 100% organic solvent (CH3CN or DMSO) to make 30 mM stock solutions. […] A 100 mM potassium phosphate buffer was prepared and adjusted to pH 7.4. The 30 mM stock solution of test and control compounds (1 mM) were further diluted in phosphate buffer (100 mM, pH 7.4) to ensure the final organic solvent content was <0.2% in the reaction. In a separate falcon tube, a 2× enzyme/substrate (E/S) solution was prepared in phosphate buffer. The final concentration of CYP2D6 (Corning) and AMMC was 10 nM and 4 μM, and CYP3A4 (Corning) and BFC was 20 nM and 40 μM, respectively. In a separate falcon tube, a 2× NADPH regenerating system (NRS) was prepared in phosphate buffer. The final concentration for each component in the assay was as follows: • CYP2D6 assay=0.008 mM NADPH, 3.3 mM glucose 6-phosphate, 0.4 U of glucose-6-phosphate dehydrogenase/mL • CYP3A4 assay=2.45 mM NADPH, 24.7 mM glucose 6-phosphate, 1.25 U of glucose-6-phosphate dehydrogenase/mL
(§4) Both enzymatic assays were conducted in a 96-well microtiter plate (Black, Corning Costar) with a final volume of 100 μL. Preparation of the plate began with the addition of 74 μL of the E/S in the first well, and 50 μL to all subsequent wells (from 2-11). The test compounds (1 μL) were dissolved in the first well to give the first row a final volume of 75 μL. A 1:3 serial dilution of the test compound was conducted by removing 25 μL from the first well and diluting it with the second and so forth until the tenth row. Final concentrations yielded a range from 300 μM-0.01 μM. Well 11 contained no enzyme, and well 12 contained no inhibitor. Both were used as controls for background fluorescence. The plate was incubated for 10 min at 37° C. for CYP2D6, and 30 mins for CYP3A4. After incubation, the reaction was initiated by the addition of 50 μL of the 2× NRS to each well.
(§5) Immediately (within 1 min) the fluorescence was measured using a microplate reader (KC4, BioTek). CYP2D6 was monitored at Ex/Em=410/460 nm, and CYP3A4 monitored at Ex/Em=410/538 nm in kinetic mode that scanned every 5 min for 60 mins. Data was exported and corrected for background noise by subtracting the blank from the mean value of all other columns. […]

HIV-1IIIB = test: HIV MAGI assay, HIV-1IIIB; assay type: cell-based; conditions: Human immunodeficiency virus 1, MAGI
Procedure: as §1

[2] = Mouse liver microsomes assay; assay type: in vitro ADME; conditions: for Relative % remaining, mouse liver microsomes: 3 μM compound, 1 mg/mL microsomes
Procedure: Controls were processed and analyzed like test compounds. […] The relative percent remaining was calculated using: Relative % remaining=[…]=0*100. […] Metabolism data averaged duplicates.

MAGI [3] = test: Cytotoxicity in MAGI HIV-1IIIB assay; assay type: cell-based; conditions: Table 3
Procedure: as §1

[4] = Procedure: Human Liver Microsomes: Pooled mixed gender human liver microsomes at a concentration of 20 mg/mL were purchased from XenoTech (Kansas City, Kans.). The vials of microsomes were stored at −80° C. and thawed on ice before each experiment. The microsomes were diluted to 1 mg/mL with 100 mM potassium phosphate buffer (pH 7.4).
Experimental Conditions: Test compounds were weighed and dissolved in 100% acetonitrile to make 2 mM stock solutions. […] The 2 mM stock solution of test and control compounds were further diluted in sodium phosphate buffer (100 mM, pH 7.4) to 50 μM to ensure the acetonitrile content was <0.2%.
The liver microsome assay was prepared in a 1.5 mL Eppendorf tube (Fisher Scientific) with a final volume of 1100 μL. Each reaction contained sodium phosphate buffer, liver microsomes (1 mg/mL), and test compound resulting in a final concentration of 3 μM. Following a 5 min pre-incubation of drug and microsomes in a 37° C. shaking incubator, the reaction was initiated with NADPH (110 μL). Aliquots (100 μL) were removed in duplicate at 0, 5, 10, 15, and […] and quenched in cold acetonitrile (200 μL). The aliquots were centrifuged at 12,000 g for 5 min and the supernatant removed and placed in an LCMS vial. […] A no NADPH negative control with test and control compound was conducted in singlet (150 μL) at the longest time point. Controls were processed and analyzed like test compounds.
An Agilent Technologies LCMS system consisting of an Agilent 6120 quadrupole mass spectrometer equipped with an Agilent 1200 binary pump, degasser, and auto sampler (Santa Clara, Calif.). The analytical column used for analysis was an XDB-Eclipse Plus C18 column (4.6 mm×150 mm column; Agilent Technologies). The mobile phase for the HPLC was 50 mM ammonium formate buffer, pH 3.5 (A) and acetonitrile (B). The samples were analyzed using the following 8-minute method: A linear gradient from 10% B to 95% B over for 5 minutes, with a 3 min hold at 95%. An equilibration at 10% B for 5 min was conducted after each run. Sample injection volume was 10 μL and the flow rate was 1.0 mL/min. Single ion monitoring of the mass in positive mode was conducted the molecular weight for each compound. Each time point was assessed on the LCMS and the area, based on the extracted ion, was manually integrated.
Calculations: The depletion of the compound was monitored as a function of time, and the area under the curve was manually integrated. The relative percent remaining was calculated using: Relative % remaining=AreaTime/AreaTime=0*100. The relative percentages for the duplicate runs were averaged and the standard deviations were calculated. Metabolism data averaged duplicates.

CYP3A4 = CYP3A4 (Homo sapiens (Human), UniProt P08684); test: Recombinant CYP inhibition assay (fluorometric), CYP3A4; assay type: in vitro ADME
Source text: as §2, §3, §4, §5

HIV-1BaL = test: HIV MAGI assay, HIV-1BaL; assay type: cell-based; conditions: Human immunodeficiency virus 1, MAGI
Procedure: as §1

Sequence of CYP3A4 (P08684 whole entry): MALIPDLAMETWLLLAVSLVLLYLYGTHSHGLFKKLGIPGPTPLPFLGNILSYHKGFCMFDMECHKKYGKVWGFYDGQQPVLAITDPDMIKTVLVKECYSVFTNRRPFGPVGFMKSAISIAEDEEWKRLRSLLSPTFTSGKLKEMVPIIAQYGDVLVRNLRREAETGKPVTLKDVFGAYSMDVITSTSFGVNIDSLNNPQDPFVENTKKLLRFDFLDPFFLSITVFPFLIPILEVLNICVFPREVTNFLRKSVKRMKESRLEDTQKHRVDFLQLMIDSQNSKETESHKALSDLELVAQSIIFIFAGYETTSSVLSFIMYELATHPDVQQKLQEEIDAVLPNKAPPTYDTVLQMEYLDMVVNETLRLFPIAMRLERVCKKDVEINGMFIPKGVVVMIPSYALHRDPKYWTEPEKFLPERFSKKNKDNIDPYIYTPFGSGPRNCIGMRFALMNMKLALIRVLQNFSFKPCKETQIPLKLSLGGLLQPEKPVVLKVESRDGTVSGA
Sequence of CYP2D6 (P10635 whole entry): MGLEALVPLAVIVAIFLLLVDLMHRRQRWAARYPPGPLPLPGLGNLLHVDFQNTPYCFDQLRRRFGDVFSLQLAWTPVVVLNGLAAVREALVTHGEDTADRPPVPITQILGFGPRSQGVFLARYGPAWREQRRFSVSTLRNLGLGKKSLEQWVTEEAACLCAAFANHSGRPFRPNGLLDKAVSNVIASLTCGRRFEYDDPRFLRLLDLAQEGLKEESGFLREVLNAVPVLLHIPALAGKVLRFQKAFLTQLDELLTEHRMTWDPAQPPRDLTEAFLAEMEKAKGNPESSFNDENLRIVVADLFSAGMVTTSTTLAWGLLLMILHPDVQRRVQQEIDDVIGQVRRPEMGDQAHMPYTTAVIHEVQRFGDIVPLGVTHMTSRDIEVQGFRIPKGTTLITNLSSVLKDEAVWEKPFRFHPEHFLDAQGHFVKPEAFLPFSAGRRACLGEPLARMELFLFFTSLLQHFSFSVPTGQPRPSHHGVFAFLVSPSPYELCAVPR

Cc1ccnc2c1NC(=O)c1cccnc1N2C1CC1 [nevirapine]
Passages required to develop resistance (HIV): 2 passages

c1cc(CN2CCCNCCNCCCNCC2)ccc1CN1CCCNCCNCCCNCC1 [AMD3100]
Passages required to develop resistance (HIV): 63 passages

Cc1cn([C@H]2C[C@H](N=[N+]=[N-])[C@@H](CO)O2)c(=O)[nH]c1=O [AZT]
Passages required to develop resistance (HIV): 11 passages

Cc1ccc(-c2ccc3c(c2)C=C(C(=O)Nc2ccc(C[N+](C)(C)C4CCOCC4)cc2)CCC3)cc1.[Cl-] [TAK-779]
Passages required to develop resistance (HIV): 41 passages

NCCCCN(C[C@H]1CN(CC[C@H](NC(=O)C2CCC(F)(F)CC2)c2ccccc2)CCN1)[C@H]1CCCc2cccnc21 [Compound 2]
MAGI HIV-1BaL TC90 (MAGI [1]): 33.1 µM
pIC50 (CYP2D6; Table 1): < 4.70
Inhibition of cytochrome P450 isoform 2D6 (in words) (CYP2D6; preliminary ADME screening): does not inhibit
pIC50 (HIV-1IIIB; Table 3): 7.15
IC90 (HIV-1IIIB; Table 3): 680 nM
pEC50 (HIV-1IIIB; Table 1, read-out: HIV MAGI EC50 HIVIIIB): 7.15
Stability in mouse liver microsomes (in words) [2]: good stability
Relative % remaining, mouse liver microsomes ([2]; 10 min): 95 ± 7.2%
Relative % remaining, mouse liver microsomes ([2]; 30 min): 96 ± 6.5%
MLM ([2]; @ 10 min, Table 1): 95% @ 10 min
MAGI HIV-1IIIB TC50 (MAGI [3]): >10.0 µM
Stability in human liver microsomes (in words) [4]: good stability
Relative % remaining, human liver microsomes ([4]; both, 10 min, 3 μM, pH 7.4): 65 ± 8.6%
Relative % remaining, human liver microsomes ([4]; both, 0.5 h, 3 μM, pH 7.4): 78 ± 2.2%
HLM ([4]; both, human, microsomes, 10 min, 3 μM, pH 7.4): 65% @ 10 min
pIC50 (CYP3A4; Table 1): < 4.70
Inhibition of cytochrome P450 isoform 3A4 (in words) (CYP3A4; preliminary ADME screening): does not inhibit
pIC50 (HIV-1BaL; Table 3): 5.58
IC90 (HIV-1BaL; Table 3): 29.1 µM
pEC50 (HIV-1BaL; Table 1, read-out: HIV MAGI EC50 HIVBa-L): 5.58
